Experimental data published in article PMC6169531 (Journal of molecular biology, 2016).

Legend:
Test in all cases: inhibition of methyl p-nitrophenyl phosphate hydrolysis, […] nm
Format in all cases: biochemical
[1] = target: AP (Escherichia coli alkaline phosphatase) (Escherichia coli, UniProt P00634, D123A)
[2] = target: AP (Escherichia coli alkaline phosphatase) (Escherichia coli, UniProt P00634, D175A)
[3] = target: AP (Escherichia coli alkaline phosphatase) (Escherichia coli, UniProt P00634, K350A)
[4] = target: AP (Escherichia coli alkaline phosphatase) (Escherichia coli, UniProt P00634, E344Y)
Sequence of AP (Escherichia coli alkaline phosphatase) (Escherichia coli, UniProt P00634, E344Y) (P00634 23-471 E344Y): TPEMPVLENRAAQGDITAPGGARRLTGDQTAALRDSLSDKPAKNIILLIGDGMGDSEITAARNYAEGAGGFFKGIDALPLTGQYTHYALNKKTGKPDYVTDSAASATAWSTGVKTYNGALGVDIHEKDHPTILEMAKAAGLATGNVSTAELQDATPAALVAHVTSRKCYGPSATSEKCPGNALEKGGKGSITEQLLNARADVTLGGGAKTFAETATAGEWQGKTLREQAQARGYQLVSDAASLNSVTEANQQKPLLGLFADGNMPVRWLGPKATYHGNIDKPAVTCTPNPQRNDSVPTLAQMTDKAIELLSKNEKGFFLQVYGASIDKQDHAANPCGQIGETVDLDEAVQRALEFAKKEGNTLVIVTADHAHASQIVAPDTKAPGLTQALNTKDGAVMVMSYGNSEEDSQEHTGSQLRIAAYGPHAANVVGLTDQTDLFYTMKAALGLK

Sequence of AP (Escherichia coli alkaline phosphatase) (Escherichia coli, UniProt P00634, K350A) (P00634 23-471 K350A): as the sequence (P00634 23-471 E344Y) above, with Y322E, K328A counted along it
Sequence of AP (Escherichia coli alkaline phosphatase) (Escherichia coli, UniProt P00634, D123A) (P00634 23-471, stated change not applied): as the sequence (P00634 23-471 E344Y) above, with Y322E counted along it
Sequence of AP (Escherichia coli alkaline phosphatase) (Escherichia coli, UniProt P00634, D175A) (P00634 23-471 D175A): as the sequence (P00634 23-471 E344Y) above, with D153A, Y322E counted along it

Row | SMILES | Ki [1] | Ki [2] | Ki [3] | Ki [4]
1 | [O]=[W](=[O])([OH])[OH] [tungstate] | 99 µM | 64 µM | 44 µM | 
2 | [O]=[V]([OH])([OH])[OH] [vanadate] | 13 µM | 17 µM | 9.4 µM | 28 µM
